Read-outs that look alike come from different tables or passages of the source.
How the values were obtained:
GR (human) = GR (human) (Homo sapiens (Human), UniProt P04150); test: Radioligand binding to GR; details: [3H]dexamethasone, IM-9 cells (cytosol)
Description: Radioligand binding assays were performed with the cell extracts and ligands as detailed below. Complete methodology is contained within the cited publications. Kd values were determined by Non-Specific Incubation Detection Method.
GR (human) (agonist radioligand) IM-9 cells (cytosol)
[^3H]dexamethasone 1.5 nM 1.5 nM triamcinolone (10 μM) 6 h 4° C. Scintillation counting (Clark, A. F et al. (1996) Invest. Ophtalmol. Vis. Sci., 37: 805-813).
The results are expressed as a percent of control specific binding measured specific binding*100 control specific binding and as a percent inhibition of control specific binding 100-(measured specific binding*100) control specific binding obtained in the presence of compound.
The IC50 values (concentration causing a half-maximal inhibition of control specific binding) and Hill coefficients (nH) were determined by non-linear regression analysis of the competition curves generated with mean replicate values using Hill equation curve fitting. Y=D+[A−D] 1+(C/C50)nH […]
The inhibition constants (Ki) were calculated using the Cheng Prusoff equation: Ki=[…]
Radioligand binding inhibition and affinity calculations were determined using [^3H]-methyltrienolone, [^3H]-dexamethasone and [^3H]-estradiol for AR, GR and ER, respectively. […]

[1] = target: wild-type Androgen Receptor (AR-wt) (Homo sapiens (Human), UniProt P10275); test: LNCaP-AR-wt AG reporter assay (agonist mode); type: cell-based
wild-type Androgen Receptor (AR-wt), sequence (P10275 whole entry): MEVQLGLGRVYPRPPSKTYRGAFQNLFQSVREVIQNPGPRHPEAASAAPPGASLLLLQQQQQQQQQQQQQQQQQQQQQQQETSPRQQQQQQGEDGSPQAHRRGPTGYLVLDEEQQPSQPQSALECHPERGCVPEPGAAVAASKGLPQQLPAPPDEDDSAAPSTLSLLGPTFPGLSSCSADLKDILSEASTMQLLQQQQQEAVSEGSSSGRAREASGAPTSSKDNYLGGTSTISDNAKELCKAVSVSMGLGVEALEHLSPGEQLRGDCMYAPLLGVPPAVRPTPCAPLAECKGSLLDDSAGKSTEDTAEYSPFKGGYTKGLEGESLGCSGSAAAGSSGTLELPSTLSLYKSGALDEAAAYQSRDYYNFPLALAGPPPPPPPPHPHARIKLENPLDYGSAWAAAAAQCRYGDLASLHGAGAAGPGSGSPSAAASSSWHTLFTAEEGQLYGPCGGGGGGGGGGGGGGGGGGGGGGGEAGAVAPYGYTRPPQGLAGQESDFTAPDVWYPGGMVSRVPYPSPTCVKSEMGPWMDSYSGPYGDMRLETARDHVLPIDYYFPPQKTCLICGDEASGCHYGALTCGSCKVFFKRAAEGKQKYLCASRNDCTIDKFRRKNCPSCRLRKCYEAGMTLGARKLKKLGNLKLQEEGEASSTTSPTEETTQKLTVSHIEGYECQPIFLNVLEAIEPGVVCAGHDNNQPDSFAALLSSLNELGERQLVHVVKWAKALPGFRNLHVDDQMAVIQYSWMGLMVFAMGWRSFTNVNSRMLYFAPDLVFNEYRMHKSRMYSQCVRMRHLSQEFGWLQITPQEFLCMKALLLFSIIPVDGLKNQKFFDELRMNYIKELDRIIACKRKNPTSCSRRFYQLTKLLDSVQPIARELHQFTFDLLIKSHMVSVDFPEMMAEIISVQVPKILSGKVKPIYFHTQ

[2] = target: T1, F876L mutant Androgen Receptor (AR-F876L) (Homo sapiens (Human), UniProt P10275, F877L); test: LNCaP-AR-F876L ANT reporter assay (antagonist mode); type: cell-based
T1 sequence (P10275 whole entry F877L): as the sequence (P10275 whole entry) above, with F877L counted along it

[3] = target: T1, F876L mutant Androgen Receptor (AR-F876L); test: LNCaP-AR-F876L AG reporter assay (agonist mode); type: cell-based
AR T877A = AR T877A (Homo sapiens (Human), UniProt P10275, T878A); test: Luciferase Transcriptional Reporter Assay, AR T877A (HepG2); type: cell-based
AR T877A, sequence (P10275 whole entry T878A): as the sequence (P10275 whole entry) above, with T878A counted along it
Description: HepG2 cells were maintained in EMEM supplemented with 10% FBS. One day before transfection, the media was changed to EMEM with 10% CSS. T-150 flasks were transiently transfected using 120 μL Lipofectamine 2000 (Life Technologies), 30 μg mutant cDNA (expression vector)—mutant cDNA tested were L701H, T877A, W741C and H874Y—and 40 μg 4×ARE-Luciferase (reporter vector) in OptiMEM and the flasks were incubated overnight. Cells were then trypsinized, counted and resuspended at 500,000 cells/mL. For agonist mode, the compounds of Formula (I) were serially diluted and 50 μL of the compound was added per well. 50 μL of the cells were added to each well and incubated for 48 hours. For antagonist mode, a final concentration of 90 pM R1881 was added to the diluted compounds and incubated for 48 hours. The plates were then assayed using SteadyGlo and read on the Envision. Percent Stimulation and Inhibition were determined and analyzed using GraphPad Prism.
F876L agonism was evident at 3 and 10 μM (5%) but zero at 30 μM. The antagonistic (IC50) and agonistic (EC50) values for each of the AR cDNA used in the reporter assays are summarized. All values are calculated relative to the activity of R1881 induced androgen receptor activity (n≥3). Also indicated are the maximal inhibition and extent of induction of androgen dependent signaling (%).

AR-VP16 = AR-VP16 (Homo sapiens, UniProt P10275); test: AR-VP16 DNA Binding Assay (VP16 WT); type: cell-based; details: HepG2, antagonist mode, 90 pM R1881, 48 hours
AR-VP16, sequence (P10275 whole entry, looked up): as the sequence (P10275 whole entry) above
Description: (§1) HepG2 cells were maintained in EMEM supplemented with 10% FBS. One day before transfection, the media was changed to EMEM with 10% CSS. T-150 flasks were transiently transfected using 120 μL Lipofectamine 2000 (Life Technologies), 24.5 μg AR-VP16 or F876L-VP16 (expression vector) and 49 μg 4×ARE-Luciferase (reporter vector) in OptiMEM and the flasks were incubated overnight. Cells were then trypsinized, counted and resuspended at 500,000 cells/mL. For agonist mode, the compounds were serially diluted and 50 μL of the compound was added per well. 50 μL of the cells were added to each well and incubated for 48 hours. For antagonist mode, a final concentration of 90 pM (VP16 AR) or 1 nM (VP16 F876L) R1881 was added to the plate and incubated for 48 hours. The plates were then assayed using SteadyGlo and read on the Envision. Percent Stimulation and Inhibition were determined and analyzed using GraphPad Prism.

F876L-VP16 = F876L-VP16 (Homo sapiens (Human), UniProt P10275, F877L); test: AR-VP16 DNA Binding Assay (VP16 F876L); type: cell-based; details: HepG2, antagonist mode, 1 nM R1881, 48 hours
F876L-VP16, sequence (P10275 whole entry F877L): as the sequence (P10275 whole entry) above, with F877L counted along it
Description: as §1

22RV1 cells = test: 22RV1 Proliferation Assay; type: cell-based; details: Homo sapiens, 120 h
Description: 22RV1 were obtained from ATCC and cultured in RPMI 1640 supplemented with 10% FBS. Cells were seeded at a density of 4,500 cells/well into Greiner 384-well, white, optical-bottom plates in RPMI 1640 phenol red-free medium with 1% charcoal stripped FBS and incubated for 2 days at 37° C. The cells were treated with a compound of Formula (I) in 12-point dose-response both in the presence and absence of 0.1 nM R1881 for 5 days. To determine cell viability, CellTiter-Glo reagent (Promega) was added to each well according to the manufacturer's instructions, placed on a shaker at 300 rpm for 10 min, and luminescence recorded using an EnVision plate reader (Perkin Elmer). The data was exported to GraphPad Prism and analyzed using the Four Parameter equation to obtain IC50 values for each compound. Each compound was tested in at least three independent experiments.

[4] = maximum % stimulation (agonist response) over the tested concentration range

GR (human), sequence (P04150 whole entry): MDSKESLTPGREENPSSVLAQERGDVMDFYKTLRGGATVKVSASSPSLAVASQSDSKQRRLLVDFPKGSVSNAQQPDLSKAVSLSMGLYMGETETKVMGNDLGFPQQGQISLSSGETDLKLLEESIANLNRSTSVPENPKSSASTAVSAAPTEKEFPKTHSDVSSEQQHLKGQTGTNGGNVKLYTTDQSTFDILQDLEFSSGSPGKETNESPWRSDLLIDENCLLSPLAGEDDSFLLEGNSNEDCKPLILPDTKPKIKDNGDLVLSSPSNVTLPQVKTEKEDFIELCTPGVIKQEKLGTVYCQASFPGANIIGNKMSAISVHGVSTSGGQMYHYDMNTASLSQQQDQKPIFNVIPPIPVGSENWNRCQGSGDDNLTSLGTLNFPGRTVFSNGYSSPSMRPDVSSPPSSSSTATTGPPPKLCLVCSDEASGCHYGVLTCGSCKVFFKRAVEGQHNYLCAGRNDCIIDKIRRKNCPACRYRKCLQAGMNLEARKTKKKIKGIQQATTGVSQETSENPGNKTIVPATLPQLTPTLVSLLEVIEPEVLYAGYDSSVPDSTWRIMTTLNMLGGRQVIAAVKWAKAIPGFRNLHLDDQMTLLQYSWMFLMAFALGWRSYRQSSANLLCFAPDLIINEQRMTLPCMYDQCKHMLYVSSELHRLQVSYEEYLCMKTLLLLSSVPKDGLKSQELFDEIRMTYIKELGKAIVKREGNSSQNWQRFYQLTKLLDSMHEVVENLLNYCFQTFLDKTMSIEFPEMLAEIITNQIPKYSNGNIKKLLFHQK

IC50 (GR (human)): > 30 µM | EC50 ([1]; agonist mode, pEC50 = −Log10(EC50 in Molar), read-out: LNCaP-AR-wt AG pEC50 (converted)): > 15.1 µM | LNCaP-AR-wt AG MAX % Stim [1, 4]: −0.1% | LNCaP-AR-F876L ANT pIC50 ([2]; antagonist mode, pIC50 = −Log10(IC50 in Molar)): 7.43 | LNCaP-AR-F876L ANT MAX % Inh ([2]; maximum % inhibition of R1881 control response over the tested concentration range): 100.0% | EC50 ([3]; agonist mode, pEC50 = −Log10(EC50 in Molar), read-out: LNCaP-AR-F876L AG pEC50 (converted)): > 15.1 µM | LNCaP-AR-F876L AG MAX % Stim [3, 4]: 0.1% | EC50 (AR T877A; HepG2, agonist mode, 48 hours, read-out: Agonism EC50, AR construct T877A): 2.29 µM | Emax (AR T877A; HepG2, agonist mode, relative to R1881, read-out: Agonism % Emax, AR construct T877A): 10% | IC50 (AR T877A; HepG2, antagonist mode, 90 pM R1881, 48 hours, read-out: Antagonism IC50, AR construct T877A): 6.81 µM | Emax (AR T877A; HepG2, antagonist mode, maximal inhibition, read-out: Antagonism % Emax, AR construct T877A): 80% | IC50 (AR-VP16): 7.75 µM | IC50 (F876L-VP16): 0.015 µM | IC50 (22RV1 cells; 22RV1, in the absence of 0.1 nM R1881, 5 days, read-out: IC50, agonist mode): 492 µM | IC50 (22RV1 cells; 22RV1, in the presence of 0.1 nM R1881, 5 days, read-out: IC50, antagonist mode): 260 µM
Compound: N#Cc1ncc(N2C(=O)C3(CCC3)N(c3ccc(OC4CCNCC4)nc3)C2=S)cc1C(F)(F)F [Cpd 43, 5-[5-oxo-8-[6-(4-piperidyloxy)-3-pyridyl]-7-thioxo-6,8-diazaspiro[3.4]octan-6-yl]-3-(trifluoromethyl)pyridine-2-carbonitrile]
